From publication PMC12748989 (Nature Communications, 2025)
Ends that are not written are not given here.

Experiments:
MCF10A cells = conditions: 24 h
MCF7 cells = conditions: 24 h
TamR3 cells = conditions: 24 h
PBMC = conditions: 12.5 µM

## CC[C@H](C)[C@H](N)C(=O)N[C@@H](CC(N)=O)C(=O)N[C@@H](CC(C)C)C(=O)N[C@@H](CCCCN)C(=O)N[C@@H](C)C(=O)N[C@@H](CC(C)C)C(=O)N[C@@H](C)C(=O)N[C@@H](C)C(=O)N[C@@H](CC(C)C)C(=O)N[C@@H](C)C(=O)N[C@@H](CCCCN)C(=O)N[C@@H](CCCCN)C(=O)N[C@H](C(=O)N[C@@H](CC(C)C)C(N)=O)[C@@H](C)CC [Mastoparan, reference compound]
MCF10A cells
  IC50: 16.9 µM
MCF7 cells
  IC50: 21.8 µM
TamR3 cells
  IC50: 18.4 µM

## CC[C@H](C)[C@H](N)C(=O)N[C@@H](Cc1ccc(O)cc1)C(=O)N[C@@H](CC(C)C)C(=O)N[C@@H](CCCCN)C(=O)N[C@@H](C)C(=O)N[C@@H](CC(C)C)C(=O)N[C@@H](C)C(=O)N[C@@H](C)C(=O)N[C@@H](CC(C)C)C(=O)N[C@@H](C)C(=O)N[C@@H](CCCCN)C(=O)N[C@@H](CCCCN)C(=O)N[C@H](C(=O)N[C@@H](CC(C)C)C(N)=O)[C@@H](C)CC [Y2]
MDA-MB-231 cells
  Average (percentage cell inhibition), Dmastoparan MDA-MB231 12.5uM: 75.0702%
PBMC
  Average (percentage cell inhibition), Mastoparan PBMC: 57.84%

## CC[C@H](C)[C@H](N)C(=O)N[C@@H](CC(N)=O)C(=O)N[C@@H](Cc1ccc(O)cc1)C(=O)N[C@@H](CCCCN)C(=O)N[C@@H](C)C(=O)N[C@@H](CC(C)C)C(=O)N[C@@H](C)C(=O)N[C@@H](C)C(=O)N[C@@H](CC(C)C)C(=O)N[C@@H](C)C(=O)N[C@@H](CCCCN)C(=O)N[C@@H](CCCCN)C(=O)N[C@H](C(=O)N[C@@H](CC(C)C)C(N)=O)[C@@H](C)CC [Y3]
MDA-MB-231 cells
  Average (percentage cell inhibition), Dmastoparan MDA-MB231 12.5uM: 39.9685%
PBMC
  Average (percentage cell inhibition), Mastoparan PBMC: 5.097%

## CC[C@H](C)[C@H](N)C(=O)N[C@@H](CC(N)=O)C(=O)N[C@@H](CC(C)C)C(=O)N[C@@H](Cc1ccc(O)cc1)C(=O)N[C@@H](C)C(=O)N[C@@H](CC(C)C)C(=O)N[C@@H](C)C(=O)N[C@@H](C)C(=O)N[C@@H](CC(C)C)C(=O)N[C@@H](C)C(=O)N[C@@H](CCCCN)C(=O)N[C@@H](CCCCN)C(=O)N[C@H](C(=O)N[C@@H](CC(C)C)C(N)=O)[C@@H](C)CC [Y4]
MDA-MB-231 cells
  Average (percentage cell inhibition), Dmastoparan MDA-MB231 12.5uM: 34.4143%
PBMC
  Average (percentage cell inhibition), Mastoparan PBMC: 3.789%

## CC[C@H](C)[C@H](N)C(=O)N[C@@H](CC(N)=O)C(=O)N[C@@H](CC(C)C)C(=O)N[C@@H](CCCCN)C(=O)N[C@@H](Cc1ccc(O)cc1)C(=O)N[C@@H](CC(C)C)C(=O)N[C@@H](C)C(=O)N[C@@H](C)C(=O)N[C@@H](CC(C)C)C(=O)N[C@@H](C)C(=O)N[C@@H](CCCCN)C(=O)N[C@@H](CCCCN)C(=O)N[C@H](C(=O)N[C@@H](CC(C)C)C(N)=O)[C@@H](C)CC [Y5]
MDA-MB-231 cells
  Average (percentage cell inhibition), Dmastoparan MDA-MB231 12.5uM: 43.7779%
PBMC
  Average (percentage cell inhibition), Mastoparan PBMC: 12.3024%

## CC[C@H](C)[C@H](N)C(=O)N[C@@H](CC(N)=O)C(=O)N[C@@H](CC(C)C)C(=O)N[C@@H](CCCCN)C(=O)N[C@@H](C)C(=O)N[C@@H](Cc1ccc(O)cc1)C(=O)N[C@@H](C)C(=O)N[C@@H](C)C(=O)N[C@@H](CC(C)C)C(=O)N[C@@H](C)C(=O)N[C@@H](CCCCN)C(=O)N[C@@H](CCCCN)C(=O)N[C@H](C(=O)N[C@@H](CC(C)C)C(N)=O)[C@@H](C)CC [Y6]
MDA-MB-231 cells
  Average (percentage cell inhibition), Dmastoparan MDA-MB231 12.5uM: 22.8055%
PBMC
  Average (percentage cell inhibition), Mastoparan PBMC: -4.904%

## CC[C@H](C)[C@H](N)C(=O)N[C@@H](CC(N)=O)C(=O)N[C@@H](CC(C)C)C(=O)N[C@@H](CCCCN)C(=O)N[C@@H](C)C(=O)N[C@@H](CC(C)C)C(=O)N[C@@H](Cc1ccc(O)cc1)C(=O)N[C@@H](C)C(=O)N[C@@H](CC(C)C)C(=O)N[C@@H](C)C(=O)N[C@@H](CCCCN)C(=O)N[C@@H](CCCCN)C(=O)N[C@H](C(=O)N[C@@H](CC(C)C)C(N)=O)[C@@H](C)CC [Y7]
MDA-MB-231 cells
  Average (percentage cell inhibition), Dmastoparan MDA-MB231 12.5uM: 74.0703%
PBMC
  Average (percentage cell inhibition), Mastoparan PBMC: 16.9599%

## CC[C@H](C)[C@H](N)C(=O)N[C@@H](CC(N)=O)C(=O)N[C@@H](CC(C)C)C(=O)N[C@@H](CCCCN)C(=O)N[C@@H](C)C(=O)N[C@@H](CC(C)C)C(=O)N[C@@H](C)C(=O)N[C@@H](Cc1ccc(O)cc1)C(=O)N[C@@H](CC(C)C)C(=O)N[C@@H](C)C(=O)N[C@@H](CCCCN)C(=O)N[C@@H](CCCCN)C(=O)N[C@H](C(=O)N[C@@H](CC(C)C)C(N)=O)[C@@H](C)CC [Y8]
MDA-MB-231 cells
  Average (percentage cell inhibition), Dmastoparan MDA-MB231 12.5uM: 50.1841%
PBMC
  Average (percentage cell inhibition), Mastoparan PBMC: 22.0038%

## CC[C@H](C)[C@H](N)C(=O)N[C@@H](CC(N)=O)C(=O)N[C@@H](CC(C)C)C(=O)N[C@@H](CCCCN)C(=O)N[C@@H](C)C(=O)N[C@@H](CC(C)C)C(=O)N[C@@H](C)C(=O)N[C@@H](C)C(=O)N[C@@H](Cc1ccc(O)cc1)C(=O)N[C@@H](C)C(=O)N[C@@H](CCCCN)C(=O)N[C@@H](CCCCN)C(=O)N[C@H](C(=O)N[C@@H](CC(C)C)C(N)=O)[C@@H](C)CC [Y9]
MDA-MB-231 cells
  Average (percentage cell inhibition), Dmastoparan MDA-MB231 12.5uM: 27.288%
PBMC
  Average (percentage cell inhibition), Mastoparan PBMC: 11.8226%

## CC[C@H](C)[C@H](N)C(=O)N[C@@H](CC(N)=O)C(=O)N[C@@H](CC(C)C)C(=O)N[C@@H](CCCCN)C(=O)N[C@@H](C)C(=O)N[C@@H](CC(C)C)C(=O)N[C@@H](C)C(=O)N[C@@H](C)C(=O)N[C@@H](CC(C)C)C(=O)N[C@@H](Cc1ccc(O)cc1)C(=O)N[C@@H](CCCCN)C(=O)N[C@@H](CCCCN)C(=O)N[C@H](C(=O)N[C@@H](CC(C)C)C(N)=O)[C@@H](C)CC [Y10]
MDA-MB-231 cells
  Average (percentage cell inhibition), Dmastoparan MDA-MB231 12.5uM: 27.1013%
PBMC
  Average (percentage cell inhibition), Mastoparan PBMC: 11.2083%

## CC[C@H](C)[C@H](N)C(=O)N[C@@H](CC(N)=O)C(=O)N[C@@H](CC(C)C)C(=O)N[C@@H](CCCCN)C(=O)N[C@@H](C)C(=O)N[C@@H](CC(C)C)C(=O)N[C@@H](C)C(=O)N[C@@H](C)C(=O)N[C@@H](CC(C)C)C(=O)N[C@@H](C)C(=O)N[C@@H](Cc1ccc(O)cc1)C(=O)N[C@@H](CCCCN)C(=O)N[C@H](C(=O)N[C@@H](CC(C)C)C(N)=O)[C@@H](C)CC [Y11]
MDA-MB-231 cells
  Average (percentage cell inhibition), Dmastoparan MDA-MB231 12.5uM: 42.1135%
PBMC
  Average (percentage cell inhibition), Mastoparan PBMC: 16.0926%

## CC[C@H](C)[C@H](N)C(=O)N[C@@H](CC(N)=O)C(=O)N[C@@H](CC(C)C)C(=O)N[C@@H](CCCCN)C(=O)N[C@@H](C)C(=O)N[C@@H](CC(C)C)C(=O)N[C@@H](C)C(=O)N[C@@H](C)C(=O)N[C@@H](CC(C)C)C(=O)N[C@@H](C)C(=O)N[C@@H](CCCCN)C(=O)N[C@@H](Cc1ccc(O)cc1)C(=O)N[C@H](C(=O)N[C@@H](CC(C)C)C(N)=O)[C@@H](C)CC [Y12]
MDA-MB-231 cells
  Average (percentage cell inhibition), Dmastoparan MDA-MB231 12.5uM: 47.3973%
PBMC
  Average (percentage cell inhibition), Mastoparan PBMC: 22.3509%

## CC[C@H](C)[C@H](N)C(=O)N[C@@H](CC(N)=O)C(=O)N[C@@H](CC(C)C)C(=O)N[C@@H](CCCCN)C(=O)N[C@@H](C)C(=O)N[C@@H](CC(C)C)C(=O)N[C@@H](C)C(=O)N[C@@H](C)C(=O)N[C@@H](CC(C)C)C(=O)N[C@@H](C)C(=O)N[C@@H](CCCCN)C(=O)N[C@@H](CCCCN)C(=O)N[C@@H](Cc1ccc(O)cc1)C(=O)N[C@@H](CC(C)C)C(N)=O [Y13]
MDA-MB-231 cells
  Average (percentage cell inhibition), Dmastoparan MDA-MB231 12.5uM: 39.3488%
PBMC
  Average (percentage cell inhibition), Mastoparan PBMC: 16.5864%

## CC[C@H](C)[C@H](N)C(=O)N[C@@H](CC(N)=O)C(=O)N[C@@H](CC(C)C)C(=O)N[C@@H](CCCCN)C(=O)N[C@@H](C)C(=O)N[C@@H](CC(C)C)C(=O)N[C@@H](C)C(=O)N[C@@H](C)C(=O)N[C@@H](CC(C)C)C(=O)N[C@@H](C)C(=O)N[C@@H](CCCCN)C(=O)N[C@@H](CCCCN)C(=O)N[C@H](C(=O)N[C@@H](Cc1ccc(O)cc1)C(N)=O)[C@@H](C)CC [Y14]
MDA-MB-231 cells
  Average (percentage cell inhibition), Dmastoparan MDA-MB231 12.5uM: 29.2623%
PBMC
  Average (percentage cell inhibition), Mastoparan PBMC: -0.4376%

## H-INLKALAALAKKLL-NH2 [L13]
MDA-MB-231 cells
  Average (percentage cell inhibition), Dmastoparan MDA-MB231 12.5uM: 83.7429%
PBMC
  Average (percentage cell inhibition), Mastoparan PBMC: 38.8767%

## IILKKLLDFILK-NH2 [peptide 29]
MCF10A cells
  IC50: 16.8 µM
MCF7 cells
  IC50: 16.4 µM
TamR3 cells
  IC50: 14.6 µM

## LLQWLLKRLKAK-NH2 [peptide 11]
MCF10A cells
  IC50: 16 µM
MCF7 cells
  IC50: 11.5 µM
TamR3 cells
  IC50: 11.4 µM

## TLLTAIVKLFLK-NH2 [peptide 57]
MCF10A cells
  IC50: 14.9 µM
MCF7 cells
  IC50: 25 µM
TamR3 cells
  IC50: 18.1 µM
